Measured values reported in publication PMC6222819, “Assessment of Binding Interaction between Bovine Lactoferrin and Tetracycline Hydrochloride: Multi-Spectroscopic Analyses and Molecular Modeling” (Molecules : A Journal of Synthetic Chemistry and Natural …, 2018).
pKd: −log10 of the molar value. Structures can show the parent of a compound that is named as a salt.

Target: T1, bovine lactoferrin (bLf) (Bos taurus, UniProt P24627)
T1 construct: gene LTF; 80 kDa; single polypeptide chain
Experiment: microscale thermophoresis
Assay type: binding

T1 sequence (P24627 20-708): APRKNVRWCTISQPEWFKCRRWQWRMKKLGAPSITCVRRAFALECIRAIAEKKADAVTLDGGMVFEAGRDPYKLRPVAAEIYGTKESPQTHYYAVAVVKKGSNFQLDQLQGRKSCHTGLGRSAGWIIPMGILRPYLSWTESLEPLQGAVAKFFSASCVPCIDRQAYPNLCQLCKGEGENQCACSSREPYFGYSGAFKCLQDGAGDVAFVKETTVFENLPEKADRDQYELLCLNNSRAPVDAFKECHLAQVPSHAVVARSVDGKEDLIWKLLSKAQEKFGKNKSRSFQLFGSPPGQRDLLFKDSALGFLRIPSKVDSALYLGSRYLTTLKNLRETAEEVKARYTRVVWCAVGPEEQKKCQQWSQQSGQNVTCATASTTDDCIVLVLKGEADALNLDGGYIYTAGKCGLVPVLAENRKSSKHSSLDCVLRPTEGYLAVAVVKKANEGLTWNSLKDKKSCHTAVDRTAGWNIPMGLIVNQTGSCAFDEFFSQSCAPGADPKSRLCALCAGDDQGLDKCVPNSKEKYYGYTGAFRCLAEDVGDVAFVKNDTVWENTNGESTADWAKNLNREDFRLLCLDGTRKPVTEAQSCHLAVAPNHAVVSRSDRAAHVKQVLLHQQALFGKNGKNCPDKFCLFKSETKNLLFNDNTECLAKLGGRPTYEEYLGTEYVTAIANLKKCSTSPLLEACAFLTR

## CN(C)[C@@H]1C(O)=C(C(N)=O)C(=O)[C@@]2(O)C(O)=C3C(=O)c4c(O)cccc4[C@@](C)(O)[C@H]3C[C@@H]12 [Tetracycline hydrochloride]
  pKd: 4.45
